Source: US12091426B2, “Bifunctional degraders of hematopoietic progenitor kinase and therapeutic uses thereof” (Nurix Therapeutics, Inc., priority 2021, dated 2024)

Target: T1, HPK1 (Homo sapiens, UniProt Q92918)
T1 construct: A HiBiT tag was introduced by CRISPR on the N terminus of HPK1 in Jurkat cells; host or cells: Jurkat cells (ATCC TIB-152), monoclonal line with CRISPR knock-in of HiBiT at the endogenous HPK1 locus
Assay: HPK1 Cellular HiBit Degradation Assay
Format: cell-based
Details: HiBiT HPK1 Jurkat cells, 24 hrs; for DC50: concentration at which 50% of HPK1 was remaining, read-out: DC50 Category; for Dmax: Jurkat, maximum degradation vs DMSO vehicle control, read-out: Dmax Category
Summary of the method: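 HiBiT-HPK1 Jurkat (CRISPR, N-term tag), 3×10^4 cells/well, RPMI 1640 + 10% FBS; CTMs 10 uM–0.1 nM, 11 pts; 24 hrs, 37° C/5% CO2; lytic HiBiT luminescence; % remaining vs DMSO, parental background subtracted; 4-parameter fit → DC50, Dmax.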

T1 sequence (Q92918 whole entry): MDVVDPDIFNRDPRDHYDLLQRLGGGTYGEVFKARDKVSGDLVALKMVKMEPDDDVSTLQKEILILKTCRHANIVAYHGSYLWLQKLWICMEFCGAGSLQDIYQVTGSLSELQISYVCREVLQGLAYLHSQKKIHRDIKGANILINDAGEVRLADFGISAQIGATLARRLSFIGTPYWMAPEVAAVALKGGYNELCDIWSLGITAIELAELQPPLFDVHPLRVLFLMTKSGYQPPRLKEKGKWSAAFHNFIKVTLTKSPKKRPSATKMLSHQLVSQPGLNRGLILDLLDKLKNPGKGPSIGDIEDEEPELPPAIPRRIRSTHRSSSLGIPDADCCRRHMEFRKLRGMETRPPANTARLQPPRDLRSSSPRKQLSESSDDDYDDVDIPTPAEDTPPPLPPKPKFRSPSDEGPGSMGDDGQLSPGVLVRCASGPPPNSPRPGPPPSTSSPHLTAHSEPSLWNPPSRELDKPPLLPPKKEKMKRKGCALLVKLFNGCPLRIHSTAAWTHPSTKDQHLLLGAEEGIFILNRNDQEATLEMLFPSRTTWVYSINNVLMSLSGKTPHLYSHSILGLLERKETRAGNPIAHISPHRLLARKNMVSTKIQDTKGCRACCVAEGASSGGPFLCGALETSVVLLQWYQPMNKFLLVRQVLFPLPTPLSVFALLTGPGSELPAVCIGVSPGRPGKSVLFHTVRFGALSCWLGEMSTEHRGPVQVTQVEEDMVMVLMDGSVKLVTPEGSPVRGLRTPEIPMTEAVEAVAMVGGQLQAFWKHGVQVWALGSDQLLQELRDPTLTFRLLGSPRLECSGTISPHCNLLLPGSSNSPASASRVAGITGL

Row | DC50 [nM] | Dmax [%] | Structure (SMILES)
1 | < 100 | 70 to 85 | CC(C)n1cnc2cc(-c3ccc4c(c3)N([C@H]3C[C@@H](N5CCCCC5)C3)C(=O)C43CCN(C(=O)[C@H]4CC[C@H](C(=O)N5CCC(N(C)c6ccc(C7CCC(=O)NC7=O)cc6)CC5)CC4)CC3)nc(Nc3ccncc3F)c21 (mixture of isomers) [Example 136, (3RS)-3-{4-[methyl({1-[(1R,4R)-4-[(6-{4-[(3-fluoropyridin-4-yl)amino]-3-(propan-2-yl)-3H-imidazo[4,5-c]pyridin-6-yl}-2-oxo-1-[(1S,3S)-3-(piperidin-1-yl)cyclobutyl]-1,2-dihydrospiro[indole-3,4′-piperidin]-11′-yl)carbonyl]cyclohexanecarbonyl]piperidin-4-yl})amino]phenyl}piperidine-2,6-dione]
2 | < 100 | 70 to 85 | CC(C)n1cnc2cc(-c3ccc4c(c3)N([C@H]3C[C@@H](N5CCCCC5)C3)C(=O)C43CCN(C(=O)C4CCN(C(=O)C5CCN(c6ccc7c(c6)C(=O)N(C6CCC(=O)NC6=O)C7=O)CC5)CC4)CC3)nc(Nc3ccccc3F)c21 (mixture of isomers) [Example 87, 2-[(3RS)-2,6-dioxopiperidin-3-yl]-5-(4-{4-[(6-{4-[(2-fluorophenyl)amino]-3-(propan-2-yl)-3H-imidazo[4,5-c]pyridin-6-yl}-2-oxo-1-[(1S,3S)-3-(piperidin-1-yl)cyclobutyl]-1,2-dihydrospiro[indole-3,4′-piperidin]-1′-yl)carbonyl]piperidine-1-carbonyl}piperidin-1-yl)-2,3-dihydro-1H-isoindole-1,3-dione]
3 | 100 to 500 | 50 to 70 | CC(C)n1cnc2cc(-c3ccc4c(c3)N([C@H]3C[C@@H](N5CCC[C@@H](F)C5)C3)C(=O)C43CCN(C(=O)C4(C)CCN(C(=O)CC5CCN(c6ccc(C7CCC(=O)NC7=O)cn6)CC5)CC4)CC3)nc(NC3CC3)c21 (mixture of isomers) [Example 205, (3RS)-3-[6-(4-{2-[4-({6-[4-(cyclopropylamino)-3-(propan-2-yl)-3H-imidazo[4,5-c]pyridin-6-yl]-2-oxo-1-[(1S,3S)-3-[(3R)-3-fluoropiperidin-1-yl]cyclobutyl]-1,2-dihydrospiro[indole-3,4′-piperidin]-1′-yl}carbonyl)-4-methylpiperidin-1-yl]-2-oxoethyl}piperidin-1-yl)pyridin-3-yl]piperidine-2,6-dione]
4 | < 100 | 70 to 85 | CC(C)n1cnc2cc(-c3ccc4c(c3)N([C@H]3C[C@@H](N5CCCCC5)C3)C(=O)C43CCN(C(=O)CC4CCN(C(=O)C5CCN(c6ccc(C7CCC(=O)NC7=O)cn6)CC5)CC4)CC3)nc(NC3CC3)c21 (mixture of isomers) [Example 162, (3RS)-3-(6-{4-[4-(2-{6-[4-(cyclopropylamino)-3-(propan-2-yl)-3H-imidazo[4,5-c]pyridin-6-yl]-2-oxo-1-[(1S,3S)-3-(piperidin-1-yl)cyclobutyl]-1,2-dihydrospiro[indole-3,4′-piperidin]-1′-yl}-2-oxoethyl)piperidine-1-carbonyl]piperidin-1-yl}pyridin-3-yl)piperidine-2,6-dione]
5 | 100 to 500 | 70 to 85 | CC(C)n1cnc2cc(-c3ccc4c(c3)N([C@H]3C[C@@H](N5CCCCC5)C3)C(=O)C43CCN(C(=O)c4ccc(C5CCN(C(=O)C6CCN(c7ccc(C8CCC(=O)NC8=O)cn7)CC6)CC5)cc4)CC3)nc(NC3CC3)c21 (mixture of isomers) [Example 302, (3RS)-3-[6-(4-{4-[4-({6-[4-(cyclopropylamino)-3-(propan-2-yl)-3H-imidazo[4,5-c]pyridin-6-yl]-2-oxo-1-[(1S,3S)-3-(piperidin-1-yl)cyclobutyl]-1,2-dihydrospiro[indole-3,4′-piperidin]-1′-yl}carbonyl)phenyl]piperidine-1-carbonyl}piperidin-1-yl)pyridin-3-yl]piperidine-2,6-dione]
6 | 500 to 1000 | 50 to 70 | CC(C)n1cnc2cc(-c3ccc4c(c3)N([C@H]3C[C@@H](N5CCCCC5)C3)C(=O)C43CCN(C(=O)c4ccc(C(=O)N5CCC(N(C)c6ccc(C7CCC(=O)NC7=O)cn6)CC5)cc4)CC3)nc(Nc3ccccc3F)c21 (mixture of isomers) [Example 140, (3RS)-3-{6-[(1-{4-[(6-{4-[(2-fluorophenyl)amino]-3-(propan-2-yl)-3H-imidazo[4,5-c]pyridin-6-yl}-2-oxo-1-[(1S,3S)-3-(piperidin-1-yl)cyclobutyl]-1,2-dihydrospiro[indole-3,4′-piperidin]-1′-yl)carbonyl]benzoyl}piperidin-4-yl)(methyl)amino]pyridin-3-yl}piperidine-2,6-dione]
7 | < 100 | 70 to 85 | CC(C)n1cnc2cc(-c3ccc4c(c3)N([C@H]3C[C@@H](N5CCCCC5)C3)C(=O)C43CCN(C(=O)C(C)(C)N4CCN(C(=O)C5CCN(c6ccc(C7CCC(=O)NC7=O)cn6)CC5)CC4)CC3)nc(NC3CC3)c21 (mixture of isomers) [Example 188, (3RS)-3-(6-{4-[4-(1-{6-[4-(cyclopropylamino)-3-isopropylimidazo[4,5-c]pyridin-6-yl]-2-oxo-1-[(1S,3S)-3-(piperidin-1-yl)cyclobutyl]spiro[indole-3,4′-piperidin]-1′-yl}-2-methyl-1-oxopropan-2-yl)piperazine-1-carbonyl]piperidin-1-yl}pyridin-3-yl)piperidine-2,6-dione]

Continued, molecule first:

Row | Structure (SMILES) | DC50 [nM] | Dmax [%]
8 | CC(C)n1cnc2cc(-c3ccc4c(c3)N([C@H]3C[C@@H](N5C6CCC5COC6)C3)C(=O)C43CCN(C(=O)C4(C)CCN(C(=O)CC5CCN(c6ccc(C7CCC(=O)NC7=O)cn6)CC5)CC4)CC3)nc(NC3CC3)c21 (mixture of isomers) [Example 222, (3RS)-3-[6-(4-{2-[4-({6-[4-(cyclopropylamino)-3-(propan-2-yl)-3H-imidazo[4,5-c]pyridin-6-yl]-2-oxo-1-[(1S,3S)-3-{3-oxa-8-Azabicyclo[3.2.1]octan-8-yl}cyclobutyl]-1,2-dihydrospiro[indole-3,4′-piperidin]-1′-yl}carbonyl)-4-methylpiperidin-1-yl]-2-oxoethyl}piperidin-1-yl)pyridin-3-yl]piperidine-2,6-dione] | 100 to 500 | 50 to 70
9 | CC(C)n1cnc2cc(-c3ccc4c(c3)N([C@H]3C[C@@H](N5CCCCC5)C3)C(=O)C43CCN(C(=O)c4ccc(C(=O)N5CCN(c6ccc7c(c6)C(=O)N(C6CCC(=O)NC6=O)C7=O)CC5)nc4)CC3)nc(Nc3ccccc3F)c21 (mixture of isomers) [Example 45, 2-[(3RS)-2,6-dioxopiperidin-3-yl]-5-(4-{5-[(6-{4-[(2-fluorophenyl)amino]-3-(propan-2-yl)-3H-imidazo[4,5-c]pyridin-6-yl}-2-oxo-1-[(1S,3S)-3-(piperidin-1-yl)cyclobutyl]-1,2-dihydrospiro[indole-3,4′-piperidin]-1′-yl)carbonyl]pyridine-2-carbonyl}piperazin-1-yl)-2,3-dihydro-1H-isoindole-1,3-dione] | 100 to 500 | 70 to 85
10 | CC(C)n1cnc2cc(-c3ccc4c(c3)N([C@H]3C[C@@H](N5CCCCC5)C3)C(=O)C43CCN(C(=O)C4CCN(C(=O)C5CCN(c6ccc(N7CCC(=O)NC7=O)cn6)CC5)CC4)CC3)nc(NC3CC3)c21 [Example 79, 1-(6-{4-[4-({6-[4-(cyclopropylamino)-3-(propan-2-yl)-3H-imidazo[4,5-c]pyridin-6-yl]-2-oxo-1-[(1S,3S)-3-(piperidin-1-yl)cyclobutyl]-1,2-dihydrospiro[indole-3,4′-piperidin]-1′-yl}carbonyl)piperidine-1-carbonyl]piperidin-1-yl}pyridin-3-yl)-1,3-diazinane-2,4-dione] | < 100 | 50 to 70
11 | Cc1cc(F)c(Nc2nc(-c3ccc4c(c3)N([C@H]3C[C@@H](N5CCCCC5)C3)C(=O)C43CCN(C(=O)C4=CCN(C(=O)[C@H]5CC[C@H](Nc6cccc7c6C(=O)N(C6CCC(=O)NC6=O)C7=O)CC5)CC4)CC3)cc3ncn(C(C)C)c23)cc1C(=O)NC(C)C (mixture of isomers) [Example 36, 4-fluoro-2-methyl-5-{[6-(2-oxo-1′-{1-[(1R,4R)-4-({2-[(3RS)-2,6-dioxopiperidin-3-yl]-1,3-dioxo-2,3-dihydro-1H-isoindol-4-yl}amino)cyclohexanecarbonyl]-1,2,3,6-tetrahydropyridine-4-carbonyl}-1-[(1S,3S)-3-(piperidin-1-yl)cyclobutyl]-1,2-dihydrospiro[indole-3,4′-piperidin]-6-yl)-3-(propan-2-yl)-3H-imidazo[4,5-c]pyridin-4-yl]amino}-N-(propan-2-yl)benzamide] | 100 to 500 | 50 to 70
12 | CC(C)n1cnc2cc(-c3ccc4c(c3)N([C@H]3C[C@@H](N5CCCCC5)C3)C(=O)C43CCN(C(=O)[C@@H]4CCN(C(=O)[C@H]5CC[C@H](Nc6ccc(C7CCC(=O)NC7=O)cc6)CC5)C4)CC3)nc(Nc3ccncc3F)c21 (stereo partly drawn) [Example 4, 3-(4-(((1R,4R)-4-((R)-3-(6-(4-((3-fluoropyridin-4-yl)amino)-3-isopropyl-3H-imidazo[4,5-c]pyridin-6-yl)-2-oxo-1-((1S,3S)-3-(piperidin-1-yl)cyclobutyl)spiro[indoline-3,4′-piperidine]-1′-carbonyl)pyrrolidine-1-carbonyl)cyclohexyl)amino)phenyl)piperidine-2,6-dione] | < 100 | > 85
13 | CC(C)n1cnc2cc(-c3ccc4c(c3)N([C@H]3C[C@@H](N(C)C)C3)C(=O)C43CCN(C(=O)C4CCN(C(=O)C5CCN(c6ccc(C7CCC(=O)NC7=O)cn6)CC5)CC4)CC3)nc(Nc3ccccc3F)c21 (mixture of isomers) [Example 75, (3RS)-3-[6-(4-{4-[(6-{4-[(2-fluorophenyl)amino]-3-(propan-2-yl)-3H-imidazo[4,5-c]pyridin-6-yl}-2-oxo-1-[(1S,3S)-3-(dimethylamino)cyclobutyl]-1,2-dihydrospiro[indole-3,4′-piperidin]-1′-yl)carbonyl]piperidine-1-carbonyl}piperidin-1-yl)pyridin-3-yl]piperidine-2,6-dione] | 100 to 500 | 70 to 85
